The values below come from patent US5482954A, “Signal transduction inhibitor triazole and diazole compounds” (priority 1994, dated 1996).

One series relates to OVCAR3 cells. As to the kind of experiment: Laminin-stimulated cell motility. Conditions: 1 μg/mL, 18 hr preincubation; laminin 100 μg/mL. Format: cell-based, human.
The next series relates to 5R cells. As to the kind of experiment: Clonogenic (crystal violet) proliferation assay. In kind it is cell-based, rat. As to conditions: 0-10 μg/mL, 96 hr. How it is done: Proliferation: Two independent methods were used to determine the effect of various compounds on cellular proliferation. The first method utilized [^3 H]thymidine labelling and was performed using A2058, 5R, OVCAR3, and MDA-231 cells. Because the potential effect of compound 1 on thymidine metabolism was unknown, a clonogenic assay was also used. This assay utilized crystal violet nuclear staining.
For the clonogenic assay, aliquots of 50,000 cells per well (24 well plates) were grown under standard tissue culture conditions in the presence of increasing doses or test compound (0-10 μg/mL) or vehicle control. After 96 hr, the cells were gently washed with PBS, fixed, and stained with 0.5% crystal violet nuclear stain in 20% methanol. Excess stain was removed with tap water and bound stain was eluted with an equal volume solution of 01N sodium citrate (pH 4.2) and absolute ethanol. Optical density (O.D.) of eluted crystal violet stain was determined at 540 nm. The results of dose-dependent inhibition of tumor cell proliferation by compound 1 are shown in FIG. 5, in which the data are expressed as percent of untreated control cell proliferation for each cell type. The degree of inhibition varied with the cell type and was maximal (76%) for the A2058 cell line.

Another series concerns A2058 cells. Kind of series: Colony formation (soft agar). Format: cell-based, human. How it is done: Colony formation: Compound 1 was evaluated at three concentrations for inhibition of colony formation in both the A2058 and OVCAR3 cell lines. Colony number was determined in triplicate and compared to the vehicle control run on each 24 well plate to provide a percent. Colonies greater than 60 cells were counted at 100× under phase contrast. […] In a second study, selected compounds were evaluated for their effect on density-independent growth of the A2058 cell line in soft agar. Percent inhibition was determined over triplicate experiments involving three log molar concentrations of the test compound.

Series [1] has as its system HT-29 human colon cancer cells. Kind of series: Experimental pulmonary metastasis, tumor cells pretreated in vitro. Format: in vivo, nude mice. As to conditions: cells treated 10 μg/mL, 24 hr; day 28. Here is the method: Compound 1 was also tested for efficacy against HT-29 human colon cancer cells. HT-29 tumor cells were incubated with compound 1, 10 μg/mL, or DMSO vehicle (0.05%) for 24 hr. After harvesting and washing, one million cells were injected into the lateral tail vein of nude mice. Animals were humanely sacrificed on day 28, the lungs were inflated and fixed, and the number of pulmonary metastases were then counted. Observations on the size of the metastases were also made.

Series [2] deals with A2058 human melanoma tumors. As to the kind of experiment: Oral treatment of subcutaneous xenografts. In kind it is in vivo, nude mice. How it is done: This example illustrates the antitumor effect of compound 1 when administered orally to mice, following either subcutaneous inoculation of the mice with A2058 cells at two flank sites, intraperitoneal injection of OVCAR3 cells, or tail vein inoculation with 5R cells.
The antitumor effect of compound 1 was tested on groups of 10 nude mice which had been inoculated subcutaneously at two flank sites with 10^6 A2058 cells. Measureable tumors were observed within 14 days. On day 3 following tumor introduction, compound 1, diluted in PEG-400, or PEG-400 vehicle alone, was administered by gavage. Animals were monitored daily for toxicity, behavior, and extent of tumor. Weights and bidirectional measurements of A2058 tumor masses were determined three times per week.

A short description of series [3]: Plasma levels in patients of phase I clinical study. In kind it is in vivo. Conditions: human, po. The source says:
Seven patients with solid tumor metastasis are undergoing treatment via oral administration of compound 1 under the FDA approved phase I clinical study. Table J provides data on the patients' response to this treatment. PT# is patient number. Response is the sum of the products of bidirectional measurements. No measurement means that while the disease was evaluable, it was not measureable. The concentration of the drug in the blood of the patients is well within the range which inhibits signal transduction in vitro and which inhibits tumor growth in vitro and in animals.
The concentration of compound 1 in the blood of patient #1 was from 1-2 μg/mL, while that of the other three patients was >3 μg/mL (>7 μM). These concentrations are well within the range which inhibit signal transduction in vitro and which inhibit tumor growth in animals.

A short description of series [4]: Plasma levels in mice (HPLC). Format: in vivo, nude mice. Conditions: oral. How it is done: Murine data: A cohort of nude mice were inoculated with A2058 cells and treated with compound 1 at rates of 100 mg/kg/d and 250 mg/kg/qod. These animals were sacrificed humanely at 4 day intervals beginning 18 hr after oral administration of 1. Plasma was collected and frozen until evaluation by HPLC. Plasma samples were precipitated with 10% trichloroacetic acid and extracted with methylene chloride. The organic extract was evaporated to dryness under a stream of nitrogen, reconstituted and chromatographed by HPLC using an isocratic elution of 70% methanol in 0.1 M ammonium acetate (pH 6.5) on a C-18 analytical column. The lower level of sensitivity of this method is 20 ng/mL. The levels of compound 1 in plasma ranged from 1-5 μg/mL in the 100 mg/kg/d cohort and from 5-10 μg/mL in the 250 mg/kg/qod group. These plasma levels are in the range determined to be biologically significant in the inhibition of signal transduction.

Another series deals with cell adhesion to laminin. As to the kind of experiment: Cell adhesion to laminin. Format: cell-based. Conditions: data not shown. How it is done:
Cells were preincubated with compound 1 (0.03-10 μg/mL) for periods of 2 to 48 hr prior to the adhesion assay. In addition, compound 1 remained present during the assay. […] Maximal inhibition of adhesion was observed following overnight exposure of the cells to compound 1.

The conditions of series [5]: oral, nude mice; cited from earlier work.

Several values for one entry are separate records, joined by “and”; a condition that tells them apart may be missing. Equal entries are not always repeated. Where two headings read alike, the source gives them in different places.

As to `NC(=O)c1nnn(Cc2cc(Cl)c(C(=O)c3ccc(Cl)cc3)c(Cl)c2)c1N` [Compound 1], in the series on OVCAR3 cells, the “inhibition of spontaneous and laminin-stimulated motility” value is reported as “inhibited both spontaneous motility”. Moreover, the “inhibition of tumor cell proliferation” value with 5R cells is recorded as “dose dependent inhibition of tumor cell proliferation”. For the same compound, in the series on A2058 cells (Table H, soft agar), the “COLONY FORMATION (% OF CONTROL)” value was determined as 11.1 ± 5 % OF CONTROL. In addition, the “Colony Formation (% of Control)” value in the series on A2058 cells (Table K) is reported as 11.1 ± 5 % of Control. Further, the “inhibition of colony formation” value with A2058 cells (concentrations as low as 0.2 μM) is “significant inhibitory effects”. Further, in [1], the “inhibition of pulmonary colonization” value was found to be 96%. Further, the “size of pulmonary metastases” value in series [1] was “marked reduction in size”. Further, the gross toxicity result in series [2] (35 days of administration, and at necropsy) was “No gross toxicity”. Moreover, the tumor necrosis result in [2] (histologic evaluation of necropsy specimens) is listed as “Marked necrosis”. The tumor growth result in [2] (oral gavage from day 3) is “Significant growth arrest”. Also, the tumor incidence result in series [2] (oral gavage from day 3) was “marked delay in tumor incidence”. For the same compound, the Cmax amounted to 1250 ng/mL in series [3] (100 mg/m^2, patient 1, melanoma, 100 mg/m^2 qod, oral, read-out: PEAK LEVEL); 3610 ng/mL in [3] (100 mg/m^2, patient 2, colon, 100 mg/m^2 qd, oral, read-out: PEAK LEVEL); 3530 ng/mL in series [3] (100 mg/m^2, patient 3, colon, 100 mg/m^2 qd, oral, read-out: PEAK LEVEL); 3080 ng/mL in series [3] (100 mg/m^2, patient 4, ovary, 100 mg/m^2 qd, oral, read-out: PEAK LEVEL); 1770 ng/mL in series [3] (200 mg/m^2, patient 5, lung, 200 mg/m^2 qod, oral, read-out: PEAK LEVEL); 1340 ng/mL in [3] (200 mg/m^2, patient 6, carcinoid, 200 mg/m^2 qod, oral, read-out: PEAK LEVEL). For the same compound, the Cmax was 2830 ng/mL in [3] (200 mg/m^2, patient 7, colon, 200 mg/m^2 qod, oral, read-out: PEAK LEVEL); > 3000 ng/mL and > 7 µM in series [3] (other three patients of FIG. 19, read-out: concentration in the blood (peak/steady state)); 1000 to 2000 ng/mL in series [3] (patient #1, read-out: concentration in the blood (peak/steady state)). In addition, the level in plasma in [4] (100 mg/kg/d) lay in the range of 1000 to 5000 ng/mL; in [4] (250 mg/kg/qod) it was 5000 to 10000 ng/mL. The “cell adhesion to laminin” value in the series on cell adhesion to laminin was “decreased cell adhesion”. For the same compound, the “toxicity to normal tissues including connective tissue, mucosal surfaces, and bone marrow” value in series [5] is recorded as “no toxicity to normal tissues”.
